Measurements reported in US7994119B2, “Compounds for control of appetite” (University Of Cincinnati, priority 2004, dated 2011).

Columns and labels:
Y5 = target: T1, Y5 (Homo sapiens, UniProt Q15761); conditions: cited from earlier work
T1 sequence (Q15761 1-445): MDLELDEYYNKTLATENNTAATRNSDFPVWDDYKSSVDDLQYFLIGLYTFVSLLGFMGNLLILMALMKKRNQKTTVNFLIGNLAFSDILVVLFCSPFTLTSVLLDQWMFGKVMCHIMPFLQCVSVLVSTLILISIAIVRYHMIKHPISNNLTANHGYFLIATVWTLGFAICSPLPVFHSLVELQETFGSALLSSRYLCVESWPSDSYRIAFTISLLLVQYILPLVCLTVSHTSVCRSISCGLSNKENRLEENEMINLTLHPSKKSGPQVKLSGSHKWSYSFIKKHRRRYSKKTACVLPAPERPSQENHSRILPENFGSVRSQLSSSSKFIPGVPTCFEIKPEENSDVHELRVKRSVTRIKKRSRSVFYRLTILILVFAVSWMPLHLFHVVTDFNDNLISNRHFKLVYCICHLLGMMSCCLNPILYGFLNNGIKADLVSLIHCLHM

[1] = system: normal and fasted mice and rats, normal and obese humans; conditions: peripheral administration; cited from earlier work
Y4 = Y4 (Homo sapiens, UniProt P50391); conditions: cited from earlier work
Chain of Y4 (P50391 whole entry): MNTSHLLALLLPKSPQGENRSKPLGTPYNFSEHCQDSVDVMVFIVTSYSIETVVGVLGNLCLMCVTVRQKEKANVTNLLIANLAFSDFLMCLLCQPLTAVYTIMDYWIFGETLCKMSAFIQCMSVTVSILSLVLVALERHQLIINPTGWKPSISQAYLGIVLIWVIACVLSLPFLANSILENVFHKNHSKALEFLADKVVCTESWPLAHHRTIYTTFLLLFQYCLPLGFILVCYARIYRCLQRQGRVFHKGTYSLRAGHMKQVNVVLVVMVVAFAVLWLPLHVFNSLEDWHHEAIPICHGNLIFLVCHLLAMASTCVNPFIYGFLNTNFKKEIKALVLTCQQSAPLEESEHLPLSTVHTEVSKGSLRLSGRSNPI

129/J male mice = assay: feeding patterns of fasted mice after intraperitoneal injection (food intake); assay type: in vivo; conditions: mice fasted 24 hours; for control of food intake (PYY analogs): numbers only in FIGS. 3-5
Experimental: (§1) To study the feeding patterns of animals treated with the extended tripeptide BG-116, eight week old 129/J male mice are individually housed under 12-hour light/dark cycles with free access to water and standard chow. After acclimatizing for two weeks, mice are fasted 24 hours before the experiment. Saline (0.1 ml) or peptide (2 mg/mice) in saline (0.1 ml) is injected intraperitoneally, and the food intake during the next 4, 6, and 24 hours is monitored and quantified.
as §1, with “the O-glycosylated tripeptide,” for “the extended tripeptide BG-116,”, “next 4” for “next 4, 6,”, “and 6” for “and 24”
as §1, with “with BT-48 or N-α-Ac[Nle^24,28, Trp^30, Nva^31, ψ^35/36]PYY(22-36)-NH2 wherein ψ is —CH2-NH— (SEQ. ID. NO. 8),” for “with the extended tripeptide BG-116,”, “peptide (100 μg/mice)” for “peptide (2 mg/mice)”, “next 4” for “next 4, 6,”, “and 6” for “and 24”
as §1, with “BT-56 or N-α-Ac-[Trp^27, ψ^35/36]PYY(25-36)-NH2 wherein ψ is —CH2-NH— (SEQ. ID. NO. 7),” for “extended tripeptide BG-116,”, “(100 μg/mice)” for “(2 mg/mice)”, “4” for “4, 6, and 24”
as §1, with “BWX-115 or N-α-Ac-[Trp^30]PYY(25-36)-NH2 wherein ψ is —CH2-NH— (SEQ. ID. NO. 6),” for “the extended tripeptide BG-116,”, “(20 μg/mice)” for “(2 mg/mice)”, “4” for “4, 6,”

Substance: PYY(3-36): a NPY Y2-preferring ligand
- activation of Y5 receptors (Y5): potently activate
- food intake [1]: attenuate food intake
- activation of Y4 receptors (Y4): potently activate

Substance: N-α-Ac-[Trp^30]PYY(25-36)-NH2 (Ac-RHYLNWVTRQRY-NH2) [BWX-115]
- control of food intake (PYY analogs) (129/J male mice): could be used to control food intake in animals and humans

Substance: N-α-Ac[Nle^24,28, Trp^30, Nva^31, ψ^35/36]PYY(22-36)-NH2 (ASXRHYXNWXTRQRY; N-acetyl, C-amide, reduced CH2-NH bond 35/36; Artficial peptide) [BT-48]
- control of food intake (PYY analogs) (129/J male mice): could be used to control food intake in animals and humans

Substance: N-α-Ac-[Trp^27, ψ^35/36]PYY(25-36)-NH2 (Ac-RHWLNLVTRQRY-NH2; also: reduced CH2-NH bond between residues 35/36) [BT-56]
- control of food intake (PYY analogs) (129/J male mice): could be used to control food intake in animals and humans

Substance: N-α-Ac-Trp-Arg-Tyr-[β-D-Glc]-NH2 [BG-7]
- inhibition of feeding (O-glycosylated tripeptide) (129/J male mice; numbers only in FIG. 2): can inhibit feeding in subjects
